Results: paper PMC13053910, “Covalent Protein Inhibitors via Tyrosine and Tryptophan Conjugation with Cyclic Imine Mannich Electrophiles” (Angewandte Chemie (International Ed. in English), 2026)
Non-standard residues stand in square brackets, D forms with d. Residues, ends and D or L forms follow the SMILES beside them. *: point of attachment. Benzoyl(4-OPh) = O=C(c1ccc(Oc2ccccc2)cc1)*; Lys(Et2) = CCN(CC)CCCC[C@H](N)C(=O)O; Gly(cPent) = N[C@H](C(=O)O)C1CCCC1

Legend:
[1] = system: HOXA9 gene expression in THP1 cells; assay: qRT-PCR analysis of HOXA9 gene expression in THP1 cells; format: cell-based, Human; conditions: 48 h
Experimental: Figure 7 Cellular activity of covalent, cyclic imine inhibitors to CBX8. a) qRT‐PCR analysis of HOXA9 gene expression in THP1 cells after 48 h of compound treatment at the indicated dose. N = 3. Error bars represent SD. Statistical significance was calculated using Student's t‐test. ** = p < 0.01, **** = p < 0.0001, b) qRT‐PCR analysis of HOXA9 gene expression in THP1 cells treated with increasing doses of compound for 48 h. N = 3. Error bars represent SD.
Figure S24. Cellular activity of covalent, cyclic imine inhibitors to CBX8. qRT-PCR analysis of HOXA9 gene expression in THP1 cells after 48 h of compound treatment at the indicated dose. N = 3. Error bars represent s.d. Statistical significance determined by Student’s T test. * = p <0.05, ** = p < 0.01, *** = p < 0.001, **** = p < 0.0001.
2.4 Cell Culture Cell line, Media and Culture Conditions HEK293T cells were cultured in Dubecco’s Modified Essential Media (DMEM), 10% fetal bovine serum (FBS, JR Scientific), 1% glutagro (Corning), 1% penicillin/streptomycin (Corning), 1% sodium pyruvate (Corning). Human THP1 cells were cultured in RPMI (Gibco), 10% FBS (J R Scientific), 1% Sodium pyruvate (Invitrogen), 1% Pen/Strep (Invitrogen), 1% Glutamax (Thermo Scientific), 0.1% 2-mercaptoethanol.
Cells were harvested after 48 h for RNA extraction. […] SYBR Green Mastermix (Thermo Scientific) was used for quantitative PCR. […]

[2] = target: CBX8 ChD; parameters: method as in PMID 31755685, PMID 29309209; conditions: prior work ref 47, 48; cited from earlier work
[3] = pH 7 and 37 °C ref 39; cited from earlier work
[4] = Reaction of cyclic imine Mannich or sulfur fluoride electrophiles with Ac-Tyr-NHMe (HPLC, LC/MS); format: physicochemical; conditions: PBS pH 7, 37 °C
Experimental: To identify an appropriate warhead, we synthesized or purchased a collection of cyclic imines and incubated them with N‐acetyl‐L‐tyrosine methylamide (Ac‐Tyr‐NHMe) in PBS pH 7 at 37 °C (Table 1). The reactivity was quantified by UV integration on HPLC with LC/MS confirmation of product identity (Figure S1). […] The hydrolysis kinetics of imine 2 were characterized at pD 6 and 7.5 by NMR (Figure S3). […] The Mannich reaction mechanism involves a charged iminium intermediate, and the reaction is frequently catalyzed by Bronsted acids.^[ [36], [37] ^]
Figure 2 Second‐order rate constants for select cyclic imines and a sulfonyl fluoride with aromatic nucleophiles. Reactions were conducted under pseudo‐first‐order conditions with an excess of one reactant, as indicated. The reduction in the concentration of the limiting reactant was measured at various time points by HPLC analysis.
Figure S2: Second order rate constant determination. Reaction of (A) imine 1 (5 mM) with N-Ac-Tyr-NHMe (100 mM) at 37 °C or (B) at R.T. (C) imine 2 (5 mM) with N-Ac-Tyr-NHMe (100 mM) at 37 °C (D) imine 1 (5 mM) with indole-3-butyrate (100 mM) at 37 °C (E) imine 1 (10 mM) with 1 mM 1H-pyrrole-1-propionate (F) iminium 5 (5 mM) with N-Ac-Tyr-NHMe (100 mM) at 37 °C (G) imine 4 (5 mM) with N-Ac-Tyr-NHMe (100 mM) at 37 °C. (H) imine 11 (5 mM) with N-Ac-Tyr-NHMe (100 mM) at 37 °C. (I) imine 13 (5 mM) with N-Ac-Tyr-NHMe (100 mM) at 37 °C.
5.1 General procedure for determination of second order rate constants N-acetyl-l-tyrosine methyl amide (Ac-Tyr-NHMe) (100 mM) was incubated with 5 mM imine 1 in PBS (pH 7) at 37 °C or R.T..

Compound	IC50 [1] [nM]	Kd [2] [nM]	hydrolysis half‐life [3] [h]	reactivity (t1/2) ([4]; electrophile 5 mM, N‐acetyl‐l‐tyrosine methyl amide 100 mM) [h]	second‐order rate constant k2 with N‐Ac‐Tyr‐NHMe ([4]; pseudo‐first‐order conditions) [M⁻¹ s⁻¹]
CC[C@H](C)[C@H](NC(=O)[C@@H](NC(=O)c1ccc(Oc2ccccc2)cc1)C1CCCC1)C(=O)N[C@@H](CCCCN(CC)CC)C(=O)N[C@@H](CO)C(N)=O [SW2_110A, reference compound] ({Benzoyl(4-OPh)}-[Gly(cPent)]I[Lys(Et2)]S-NH2)	> 22000	800			
NCCc1ccc(S(=O)(=O)F)cc1 [compound 13, 4‐(2‐aminoethyl)‐benzenesulfonyl fluoride, reference compound]			6	0.28 ± 0.02	0.0069
